Measured values as given in US20050202511A1, “AMP-activated protein kinase (AMPK) inhibitor screening assay” (priority 2002, published 2005).

Legend:
[1] = target: recombinant á1â1γ2 heterotrimer (Lins) (Homo sapiens, UniProt Q9UGJ0, INS350L); experiment: AMPK heterotrimer kinase assay, activation by AMP; assay type: biochemical; settings: immunoprecipitated from CCL13 cells, slow lysis; read-out: A0.5
Text: (§1) Plasmids expressing myc-tagged á1, â1 and γ1, γ2 (with or without WPWS mutations) or γ3 were expressed in CCL13 cells and the recombinant complexes immunoprecipitated using anti-myc antibodies.
(§2) For this reason, the estimates of A0.5 for the H383R and T400N mutants are somewhat less accurate than the others, while no value could be obtained for the R531 G mutant. […] With some mutants, the maximal activation also appeared to be affected.
(§3) PCDNA plasmids (14,25,32) encoding á1, â1 and γ1, γ2 or γ3 were expressed in CCL13 cells (25), subject to “rapid lysis”, immunoprecipitated using anti-myc antibody, and assayed as described previously (33). “Slow lysis” of CCL13 cells was as described by Stein et al (34).

[2] = target: T1, recombinant á1â1γ2 heterotrimer (H383R) (Homo sapiens, UniProt Q9UGJ0, H383R); experiment: AMPK heterotrimer kinase assay, activation by AMP; assay type: biochemical; settings: slow lysis; estimate somewhat less accurate; read-out: A0.5
T1 construct: expressed in transfected cells; host or cells: CCL13 cells
T1 sequence (Q9UGJ0 whole entry H383R): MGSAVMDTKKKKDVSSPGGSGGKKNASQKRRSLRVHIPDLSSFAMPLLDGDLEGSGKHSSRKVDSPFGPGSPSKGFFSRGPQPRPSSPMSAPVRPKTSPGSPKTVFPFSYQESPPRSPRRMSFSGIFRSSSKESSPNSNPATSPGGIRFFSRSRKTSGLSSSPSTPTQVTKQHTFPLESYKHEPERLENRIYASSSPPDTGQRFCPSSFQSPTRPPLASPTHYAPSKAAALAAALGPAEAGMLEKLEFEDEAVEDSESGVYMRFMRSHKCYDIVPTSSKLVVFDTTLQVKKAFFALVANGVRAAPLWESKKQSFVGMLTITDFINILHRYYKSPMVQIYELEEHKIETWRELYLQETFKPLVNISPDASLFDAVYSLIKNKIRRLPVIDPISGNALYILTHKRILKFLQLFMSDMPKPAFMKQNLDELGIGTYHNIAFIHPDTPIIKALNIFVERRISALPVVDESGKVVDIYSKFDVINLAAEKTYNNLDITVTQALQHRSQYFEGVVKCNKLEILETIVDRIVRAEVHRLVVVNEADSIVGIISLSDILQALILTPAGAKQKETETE
T1 sequence (P54645 whole entry partner): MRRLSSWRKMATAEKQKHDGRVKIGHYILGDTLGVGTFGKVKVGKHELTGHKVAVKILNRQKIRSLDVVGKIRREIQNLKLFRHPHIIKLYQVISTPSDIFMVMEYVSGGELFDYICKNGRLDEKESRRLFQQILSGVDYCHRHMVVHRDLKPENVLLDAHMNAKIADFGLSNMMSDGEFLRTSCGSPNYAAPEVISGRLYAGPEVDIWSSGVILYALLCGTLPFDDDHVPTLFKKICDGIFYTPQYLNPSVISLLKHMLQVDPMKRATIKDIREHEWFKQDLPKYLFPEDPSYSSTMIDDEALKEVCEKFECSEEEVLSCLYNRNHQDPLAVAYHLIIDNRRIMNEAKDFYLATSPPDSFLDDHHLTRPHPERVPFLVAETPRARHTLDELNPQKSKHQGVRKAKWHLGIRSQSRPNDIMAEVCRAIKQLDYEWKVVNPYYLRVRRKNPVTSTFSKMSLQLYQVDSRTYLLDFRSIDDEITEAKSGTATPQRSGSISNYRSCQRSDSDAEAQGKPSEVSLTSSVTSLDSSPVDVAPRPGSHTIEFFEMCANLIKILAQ
T1 sequence (P80386 whole entry partner): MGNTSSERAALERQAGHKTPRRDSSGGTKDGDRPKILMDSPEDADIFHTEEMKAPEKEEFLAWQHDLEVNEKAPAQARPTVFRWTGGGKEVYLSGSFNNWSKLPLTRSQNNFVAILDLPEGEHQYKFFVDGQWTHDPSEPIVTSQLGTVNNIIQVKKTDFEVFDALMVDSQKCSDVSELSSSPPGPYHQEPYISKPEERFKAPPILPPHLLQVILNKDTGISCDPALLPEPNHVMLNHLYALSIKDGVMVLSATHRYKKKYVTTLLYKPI
Text: as §1, §2, §3

[3] = target: T2, recombinant á1â1γ2 heterotrimer (R531G) (Homo sapiens, UniProt Q9UGJ0, R531G); experiment: AMPK heterotrimer kinase assay, activation by AMP; assay type: biochemical
T2 construct: expressed in transfected cells; host or cells: CCL13 cells
T2 sequence (Q9UGJ0 whole entry R531G): as the sequence (Q9UGJ0 whole entry H383R) above, with R383H, R531G counted along it
T2 sequence (P54645 whole entry partner): as the sequence (P54645 whole entry partner) above
T2 sequence (P80386 whole entry partner): as the sequence (P80386 whole entry partner) above
Text: as §1, §2, §3

[4] = target: T3, recombinant á1â1γ2 heterotrimer (R302Q) (Homo sapiens, UniProt Q9UGJ0, R302Q); experiment: AMPK heterotrimer kinase assay, activation by AMP; assay type: biochemical
T3 construct: expressed in transfected cells; host or cells: CCL13 cells
T3 sequence (Q9UGJ0 whole entry R302Q): as the sequence (Q9UGJ0 whole entry H383R) above, with R302Q, R383H counted along it
T3 sequence (P54645 whole entry partner): as the sequence (P54645 whole entry partner) above
T3 sequence (P80386 whole entry partner): as the sequence (P80386 whole entry partner) above
Text: as §1, §2, §3

[5] = target: T4, recombinant á1â1γ2 heterotrimer (T400N) (Homo sapiens, UniProt Q9UGJ0, T400N); experiment: AMPK heterotrimer kinase assay, activation by AMP; assay type: biochemical; settings: slow lysis; estimate somewhat less accurate; read-out: A0.5
T4 construct: expressed in transfected cells; host or cells: CCL13 cells
T4 sequence (Q9UGJ0 whole entry T400N): as the sequence (Q9UGJ0 whole entry H383R) above, with R383H, T400N counted along it
T4 sequence (P54645 whole entry partner): as the sequence (P54645 whole entry partner) above
T4 sequence (P80386 whole entry partner): as the sequence (P80386 whole entry partner) above
Text: as §1, §2, §3

CLC2 CBS1-2 (WT) = target: T5, CLC2 CBS1-2 (WT) (Homo sapiens, UniProt P51788); experiment: Filter binding assay, GST-CBS domain fusion; settings: single-site model
T5 construct: DNAs encoding residues 582-840 of CLC2; made in house; host or cells: E. coli BL21 (DE3)
T5 sequence (P51788 582-840): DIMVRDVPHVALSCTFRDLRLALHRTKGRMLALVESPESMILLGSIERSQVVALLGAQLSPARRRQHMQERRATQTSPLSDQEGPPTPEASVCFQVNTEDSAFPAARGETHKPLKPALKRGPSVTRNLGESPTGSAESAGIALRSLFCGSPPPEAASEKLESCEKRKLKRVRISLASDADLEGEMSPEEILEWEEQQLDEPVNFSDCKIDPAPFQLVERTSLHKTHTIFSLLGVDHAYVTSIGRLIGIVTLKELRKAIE
Procedure: DNA encoding the CBS domain pair from the chloride channel CLC2 was also cloned and expressed.
All mutations were created using the Stratagene QuikChange Site-directed Mutagenesis system.
ATP or [^35S]SAM were incubated with GST-CBS domain fusions (1 ìM for WT, up to 20 μM for some mutants) for 10 min at 25° C. in a 20 il total volume in TBS. Reactions were stopped by spotting 10 ìl onto a Millipore MF Filter Membrane disc and rapidly washing under high vacuum with 1 ml of ice-cold TBS. Radioactivity was determined on the filters by scintillation counting. Non-specific binding (which was trivial) was determined by performing the assay with GST as a control, and was subtracted. […] Data were fitted to the binding models given in the text, using GraphPad Prism 3.

AMPK-γ2 CBS1-2 construct = target: T6, AMPK-γ2 CBS1-2 construct (Homo sapiens, UniProt Q9UGJ0); experiment: Displacement of [14C]AMP by unlabelled MgATP; assay type: binding; settings: high concentrations of MgATP
T6 construct: the N-terminal pair (CBS1-2, residues 274-410); made in house; host or cells: E. coli BL21 (DE3)
T6 sequence (Q9UGJ0 274-410): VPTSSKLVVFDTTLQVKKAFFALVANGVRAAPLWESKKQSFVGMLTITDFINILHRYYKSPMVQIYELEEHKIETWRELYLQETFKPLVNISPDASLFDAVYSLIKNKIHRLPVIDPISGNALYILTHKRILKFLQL
Procedure: This yielded estimates for KdAMP and KdATP of 51 and 180 iM. These are very close to the estimates obtained by direct binding measurements (53 and 175 iÌ).
Various concentrations of [^14C]-AMP, [γ^32P] […] Reactions were stopped by spotting 10 ìl onto a Millipore MF Filter Membrane disc and rapidly washing under high vacuum with 1 ml of ice-cold TBS. Radioactivity was determined on the filters by scintillation counting. Non-specific binding (which was trivial) was determined by performing the assay with GST as a control, and was subtracted. […] Data were fitted to the binding models given in the text, using GraphPad Prism 3. Estimates of parameters resulting from fits are quoted in the text and Table 1±standard error, and the curves shown in figures are theoretical curves obtained using those estimates.

recombinant á1â1γ2 heterotrimer (Lins), sequence (Q9UGJ0 with tags, fused parts or gaps INS350L): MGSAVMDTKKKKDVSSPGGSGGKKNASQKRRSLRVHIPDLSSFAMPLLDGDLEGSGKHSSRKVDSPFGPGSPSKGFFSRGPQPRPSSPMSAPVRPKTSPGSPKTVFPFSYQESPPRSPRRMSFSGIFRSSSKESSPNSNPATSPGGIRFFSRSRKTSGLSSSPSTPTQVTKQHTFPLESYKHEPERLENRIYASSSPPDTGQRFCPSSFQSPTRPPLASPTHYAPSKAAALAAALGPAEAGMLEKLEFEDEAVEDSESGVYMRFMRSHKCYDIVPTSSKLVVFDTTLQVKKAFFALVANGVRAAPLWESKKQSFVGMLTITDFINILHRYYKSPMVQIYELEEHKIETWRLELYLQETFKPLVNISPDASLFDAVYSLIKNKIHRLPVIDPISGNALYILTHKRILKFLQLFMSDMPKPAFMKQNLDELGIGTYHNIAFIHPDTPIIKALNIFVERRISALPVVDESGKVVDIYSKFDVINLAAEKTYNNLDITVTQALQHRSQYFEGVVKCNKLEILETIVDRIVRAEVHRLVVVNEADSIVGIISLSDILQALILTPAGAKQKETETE

SMILES	EC50 [1] [µM]	EC50 [2] [µM]	effect of adding AMP on activity [3]	EC50 ([3]; read-out: A0.5) [µM]	stimulation by AMP [4] [fold]	EC50 ([4]; immunoprecipitated from CCL13 cells, slow lysis, read-out: A0.5) [µM]	EC50 [5] [µM]	Kd (CLC2 CBS1-2 (WT)) [µM]	displacement of [14C]AMP binding (AMPK-γ2 CBS1-2 construct)
Nc1ncnc2c1ncn2[C@@H]1O[C@H](COP(=O)(O)O)[C@@H](O)[C@H]1O [AMP, adenosine monophosphate]	9 ± 4	51 ± 40	inhibited	> 100	3	23 ± 6	95 ± 32	1060 ± 80	
Nc1ncnc2c1ncn2[C@@H]1O[C@H](COP(=O)(O)OP(=O)(O)OP(=O)(O)O)[C@@H](O)[C@H]1O [ATP]									completely displaced
